Target: T1, human PTH1 receptor (Homo sapiens, UniProt Q03431)
T1 sequence (Q03431 27-593): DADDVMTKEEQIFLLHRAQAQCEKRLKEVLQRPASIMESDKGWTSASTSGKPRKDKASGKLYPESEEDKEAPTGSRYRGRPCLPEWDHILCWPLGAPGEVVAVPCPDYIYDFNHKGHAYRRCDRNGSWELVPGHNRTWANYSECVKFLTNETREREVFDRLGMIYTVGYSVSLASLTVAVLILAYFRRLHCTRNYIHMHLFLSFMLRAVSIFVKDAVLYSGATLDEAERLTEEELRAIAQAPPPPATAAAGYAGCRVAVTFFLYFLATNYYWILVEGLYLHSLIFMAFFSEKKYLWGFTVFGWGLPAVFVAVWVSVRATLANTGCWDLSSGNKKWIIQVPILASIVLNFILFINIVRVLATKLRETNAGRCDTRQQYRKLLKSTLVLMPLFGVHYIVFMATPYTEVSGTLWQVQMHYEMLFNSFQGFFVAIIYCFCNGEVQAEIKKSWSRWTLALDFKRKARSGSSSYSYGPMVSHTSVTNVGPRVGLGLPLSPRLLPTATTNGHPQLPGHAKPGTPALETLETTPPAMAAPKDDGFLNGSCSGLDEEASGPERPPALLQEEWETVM
Assay: In vitro cAMP signal activity in HKRK-B7 cells (LLC-PK1 cells overexpressing the human PTH1 receptor)
Assay type: cell-based

[1] = HKRK-B7 cells, compound at 1×10^−3 M, cAMP produced as percentage of that produced by hPTH(1-34) at 100 nM

cAMP production activity (%) [1] [%] | Compound | cAMP production activity (%) (0.1 µM)
94 | CCOCCCCCCC1=NC2(CCN(S(=O)(=O)CCc3c(C)cc(N(C)C(N)=O)cc3C)CC2)C(=O)N1 [Compound 1344, 1-(4-{2-[2-(6-ethoxy-hexyl)-4-oxo-1,3,8-triaza-spiro[4.5]dec-1-ene-8-sulfonyl]-ethyl}-3,5-dimethyl-phenyl)-1-methyl-urea] | 
95 | Cc1cc(N(C)C(N)=O)cc(C)c1CCS(=O)(=O)N1CCC2(CC1)N=C(CCCCCCCCCc1ccccc1)NC2=O [Compound 1348, 1-(3,5-dimethyl-4-{2-[4-oxo-2-(9-phenyl-nonyl)-1,3,8-triaza-spiro[4.5]dec-1-ene-8-sulfonyl]-ethyl}-phenyl)-1-methyl-urea] | 
98 | Cc1cc(N(C)C(N)=O)cc(C)c1CCS(=O)(=O)N1CCC2(CC1)N=C(CCCCCCc1ccccc1)NC2=O [Compound 1349, 1-(3,5-dimethyl-4-{2-[4-oxo-2-(6-phenyl-hexyl)-1,3,8-triaza-spiro[4.5]dec-1-ene-8-sulfonyl]-ethyl}-phenyl)-1-methyl-urea] | 
100 | COCCCCCCCC1=NC2(CCN(S(=O)(=O)CCc3c(C)cc(N(C)C(N)=O)cc3C)CC2)C(=O)N1 [Compound 1351, 1-(4-{2-[2-(7-methoxy-heptyl)-4-oxo-1,3,8-triaza-spiro[4.5]dec-1-ene-8-sulfonyl]-ethyl}-3,5-dimethyl-phenyl)-1-methyl-urea] | 
13 | Cc1cc(N(C)C(N)=O)cc(C)c1CCS(=O)(=O)N1CCC2(CC1)N=C(CCCCCCCS(C)(=O)=O)NC2=O [Compound 1357, 1-(4-{2-[2-(7-methanesulfonyl-heptyl)-4-oxo-1,3,8-triaza-spiro[4.5]dec-1-ene-8-sulfonyl]-ethyl}-3,5-dimethyl-phenyl)-1-methyl-urea] | 
104 | Cc1cc(N(C)C(N)=O)cc(C)c1CCS(=O)(=O)N1CCC2(CC1)N=C(CCCCCCCCCCCO)NC2=O [Compound 1361, 1-(4-{2-[2-(11-hydroxy-undecyl)-4-oxo-1,3,8-triaza-spiro[4.5]dec-1-ene-8-sulfonyl]-ethyl}-3,5-dimethyl-phenyl)-1-methyl-urea] | 
48 | Cc1cc(N(C)C(N)=O)cc(C)c1CCS(=O)(=O)N1CCC2(CC1)N=C(CCCCCCCCCC(=O)O)NC2=O [Compound 1362, 10-(8-{2-[2,6-dimethyl-4-(1-methyl-ureido)-phenyl]-ethanesulfonyl}-4-oxo-1,3,8-triaza-spiro[4.5]dec-1-en-2-yl)-decanoic acid] | 
80 | Cc1cc(N(C)C(N)=O)cc(C)c1CCS(=O)(=O)N1CCC2(CC1)N=C(CCCCCCCCCC(N)=O)NC2=O [Compound 1363, 10-(8-{2-[2,6-dimethyl-4-(1-methyl-ureido)-phenyl]-ethanesulfonyl}-4-oxo-1,3,8-triaza-spiro[4.5]dec-1-en-2-yl)-decanoic acid amide] | 
108 | Cc1cc(N(C)C(N)=O)cc(C)c1/C=C/S(=O)(=O)N1CCC2(CC1)N=C(CCCCCCCCCc1ccccc1)NC2=O [Compound 1365, 1-(3,5-Dimethyl-4-{(E)-2-[4-oxo-2-(9-phenyl-nonyl)-1,3,8-triaza-spiro[4.5]dec-1-ene-8-sulfonyl]-vinyl}-phenyl)-1-methyl-urea] | 
103 | Cc1cc(N(C)C(N)=O)cc(C)c1CCS(=O)(=O)N1CCC2(CC1)N=C(CCCCCCCCCCCN)NC2=O [Compound 1366, 1-(4-{2-[2-(11-Amino-undecyl)-4-oxo-1,3,8-triaza-spiro[4.5]dec-1-ene-8-sulfonyl]-ethyl}-3,5-dimethyl-phenyl)-1-methyl-urea] | 

The next lines start with the compound.

Compound | cAMP production activity (%) [1] [%] | cAMP production activity (%) (0.1 µM)
Cc1cc(N(C)C(N)=O)cc(C)c1CCS(=O)(=O)N1CCC2(CC1)N=C(c1cccc(C(F)(F)C(F)(F)C(F)(F)C(F)(F)F)c1)NC2=O [Compound 1341, 1-(3,5-dimethyl-4-{2-[2-(3-nonafluorobutyl-phenyl)-4-oxo-1,3,8-triaza-spiro[4.5]dec-1-ene-8-sulfonyl]-ethyl}-phenyl)-1-methyl-urea] |  | 83
CCCCCc1ccc(C2=NC3(CCN(S(=O)(=O)CCc4c(C)cc(N(C)C(N)=O)cc4C)CC3)C(=O)N2)cc1 [Compound 1342, 1-(3,5-dimethyl-4-{2-[4-oxo-2-(4-pentyl-phenyl)-1,3,8-triaza-spiro[4.5]dec-1-ene-8-sulfonyl]-ethyl}-phenyl)-1-methyl-urea] | 114 | 
CCC[C@@H]1CCC[C@H](C2=NC3(CCN(S(=O)(=O)CCc4c(C)cc(N(C)C(N)=O)cc4C)CC3)C(=O)N2)C1 [Compound 1343, 1-(3,5-dimethyl-4-{2-[4-oxo-2-((1S,3R)-3-propyl-cyclohexyl)-1,3,8-triaza-spiro[4.5]dec-1-ene-8-sulfonyl]-ethyl}-phenyl)-1-methyl-urea] | 98 | 
Cc1cc(N(C)C(N)=O)cc(C)c1CCS(=O)(=O)N1CCC2(CC1)N=C(c1cccc(CCCCCC(F)(F)F)c1)NC2=O [Compound 1345, 1-[3,5-dimethyl-4-(2-{4-oxo-2-[3-(6,6,6-trifluoro-hexyl)-phenyl]-1,3,8-triaza-spiro[4.5]dec-1-ene-8-sulfonyl}-ethyl)-phenyl]-1-methyl-urea] | 107 | 
CCOC(=O)CCCCCCCCCCCC1=NC2(CCN(S(=O)(=O)CCc3c(C)cc(N(C)C(N)=O)cc3C)CC2)C(=O)N1 [Compound 1347, 12-(8-{2-[2,6-dimethyl-4-(1-methyl-ureido)-phenyl]-ethanesulfonyl}-4-oxo-1,3,8-triaza-spiro[4.5]dec-1-en-2-yl)-dodecanoic acid ethyl ester] | 87 | 
Cc1cc(N(C)C(N)=O)cc(C)c1CCS(=O)(=O)N1CCC2(CC1)N=C(CCCCCCCCCCCCCC(=O)O)NC2=O [Compound 1350, 14-(8-{2-[2,6-dimethyl-4-(1-methyl-ureido)-phenyl]-ethanesulfonyl}-4-oxo-1,3,8-triaza-spiro[4.5]dec-1-en-2-yl)-tetradecanoic acid] | 22 | 
CCCOCCCCCC1=NC2(CCN(S(=O)(=O)CCc3c(C)cc(N(C)C(N)=O)cc3C)CC2)C(=O)N1 [Compound 1352, 1-(3,5-dimethyl-4-{2-[4-oxo-2-(5-propoxy-pentyl)-1,3,8-triaza-spiro[4.5]dec-1-ene-8-sulfonyl]-ethyl}-phenyl)-1-methyl-urea] | 78 | 
CCCCCCC(CCC)CCC1=NC2(CCN(S(=O)(=O)CCc3c(C)cc(N(C)C(N)=O)cc3C)CC2)C(=O)N1 (stereo not shown) [Compound 1353, 1-(3,5-dimethyl-4-{2-[4-oxo-2-(3-propyl-nonyl)-1,3,8-triaza-spiro[4.5]dec-1-ene-8-sulfonyl]-ethyl}-phenyl)-1-methyl-urea] | 111 | 
CCCCCc1ccc(C2=NC3(CCN(S(=O)(=O)CCc4c(C)cc(N(C)C(N)=O)cc4C)CC3)C(=O)N2)cc1OC [Compound 1354, 1-(4-{2-[2-(3-methoxy-4-pentyl-phenyl)-4-oxo-1,3,8-triaza-spiro[4.5]dec-1-ene-8-sulfonyl]-ethyl}-3,5-dimethyl-phenyl)-1-methyl-urea] | 128 | 
CCCc1cc2ccc(C3=NC4(CCN(S(=O)(=O)CCc5c(C)cc(N(C)C(N)=O)cc5C)CC4)C(=O)N3)cc2o1 [Compound 1355, 1-(3,5-dimethyl-4-{2-[4-oxo-2-(2-propyl-benzofuran-6-yl)-1,3,8-triaza-spiro[4.5]dec-1-ene-8-sulfonyl]-ethyl}-phenyl)-1-methyl-urea] | 118 | 
CCCS(=O)(=O)CCCCCC1=NC2(CCN(S(=O)(=O)CCc3c(C)cc(N(C)C(N)=O)cc3C)CC2)C(=O)N1 [Compound 1356, 1-[3,5-dimethyl-4-(2-{4-oxo-2-[5-(propane-1-sulfonyl)-pentyl]-1,3,8-triaza-spiro[4.5]dec-1-ene-8-sulfonyl}-ethyl)-phenyl]-1-methyl-urea] | 14 | 
Cc1cc(N(C)C(N)=O)cc(C)c1CCS(=O)(=O)N1CCC2(CC1)N=C(c1ccc(CCCC(F)(F)F)cc1)NC2=O [Compound 1358, 1-[3,5-dimethyl-4-(2-{4-oxo-2-[4-(4,4,4-trifluoro-butyl)-phenyl]-1,3,8-triaza-spiro[4.5]dec-1-ene-8-sulfonyl}-ethyl)-phenyl]-1-methyl-urea] | 153 | 
Cc1cc(N(C)C(N)=O)cc(C)c1CCS(=O)(=O)N1CCC2(CC1)N=C(c1cccc(CCCC(F)(F)F)c1)NC2=O [Compound 1359, 1-[3,5-dimethyl-4-(2-{4-oxo-2-[3-(4,4,4-trifluoro-butyl)-phenyl]-1,3,8-triaza-spiro[4.5]dec-1-ene-8-sulfonyl}-ethyl)-phenyl]-1-methyl-urea] | 165 | 
Cc1cc(N(C)C(N)=O)cc(C)c1CCS(=O)(=O)N1CCC2(CC1)N=C(CCCCCCCCCCCNC(=O)OC(C)(C)C)NC2=O [Compound 1360, [11-(8-{2-[2,6-dimethyl-4-(1-methyl-ureido)-phenyl]-ethanesulfonyl}-4-oxo-1,3,8-triaza-spiro[4.5]dec-1-en-2-yl)-undecyl]-carbamic acid tert-butyl ester] | 121 | 
[2H]C([2H])([2H])C1([2H])CCC(C2=NC3(CCN(S(=O)(=O)CCc4c(C)cc(N(C)C(N)=O)cc4C)CC3)C(=O)N2)CC1 (stereo not shown) [Compound 1364, 1-(3,5-dimethyl-4-{2-[2-(4-[1,1,1-^2H3]-methyl-[4-^2H1]cyclohexyl)-4-oxo-1,3,8-triaza-spiro[4.5]dec-1-ene-8-sulfonyl]-ethyl}-phenyl)-1-methyl-urea] | 84 | 

Reference: patent US9169254B2, “Spiroimidazolone derivative” (Chugai Seiyaku Kabushiki Kaisha, priority 2009, dated 2015)
